Measurements: PubChem BioAssay AID248 (DTP/NCI, 2004)
“And” between values parts separate entries of the source, which are not always exact repeats. Equal values may be shown once. Inconclusive results and toxic doses are left out.

System: L1210 leukemia ip in BDF1 mice, survival T/C
Experiment: NCI In Vivo Anticancer Drug Screen. Data for tumor model L1210 Leukemia (intraperitoneal) in B6D2F1 (BDF1) mice
Details: endpoint: mean survival time, higher = longer survival
Summary of the method: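 Mice bearing the transplanted tumor received compound or vehicle. Survival of the treated group was divided by that of the vehicle-treated control group to give the ratio.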

[1] = dose: 100.0 mg/kg/injection, schedule: Q01DX009 (ip), vehicle: saline with Tween-80
[2] = dose: 200.0 mg/kg/injection, schedule: Q01DX009 (ip), vehicle: saline with Tween-80
[3] = dose: 400.0 mg/kg/injection, schedule: Q01DX009 (ip), vehicle: saline with Tween-80
[4] = dose: 100.0 mg/kg/injection, schedule: Q04DX003 (ip), vehicle: Klucel (hydroxypropylcellulose) (HPC)
[5] = dose: 200.0 mg/kg/injection, schedule: Q04DX003 (ip), vehicle: Klucel (hydroxypropylcellulose) (HPC)
[6] = dose: 400.0 mg/kg/injection, schedule: Q04DX003 (ip), vehicle: Klucel (hydroxypropylcellulose) (HPC)
[7] = dose: 25.0 mg/kg/injection, schedule: Q01DX009 (ip), vehicle: saline
[8] = dose: 50.0 mg/kg/injection, schedule: Q01DX009 (ip), vehicle: saline
[9] = dose: 100.0 mg/kg/injection, schedule: Q01DX001 (ip), vehicle: saline
[10] = dose: 100.0 mg/kg/injection, schedule: Q01DX009 (ip), vehicle: saline
[11] = dose: 100.0 mg/kg/injection, schedule: Q04DX003 (ip), vehicle: saline
[12] = dose: 200.0 mg/kg/injection, schedule: Q04DX003 (ip), vehicle: saline
[13] = dose: 400.0 mg/kg/injection, schedule: Q04DX003 (ip), vehicle: saline
[14] = dose: 100.0 mg/kg/injection, schedule: Q01DX009 (ip), vehicle: Klucel (hydroxypropylcellulose) (HPC)
[15] = dose: 200.0 mg/kg/injection, schedule: Q01DX009 (ip), vehicle: Klucel (hydroxypropylcellulose) (HPC)
[16] = dose: 400.0 mg/kg/injection, schedule: Q01DX009 (ip), vehicle: Klucel (hydroxypropylcellulose) (HPC)

Compound: N=c1ccc2ccccc2n1O
- T/C (dose: 6.25 mg/kg/injection, schedule: Q04DX003 (ip), vehicle: other): 97 % of control
- T/C (dose: 12.5 mg/kg/injection, schedule: Q04DX003 (ip), vehicle: other): 95 % of control
- T/C (dose: 25.0 mg/kg/injection, schedule: Q04DX003 (ip), vehicle: other): 100 % of control

Compound: CC(=O)OC1CCC2(C)C3CCC4(C)C(O)CCC4C3CC(O)C2(O)C1 (stereo unspecified)
- T/C [1]: 110 % of control
- T/C [2]: 97 % of control
- T/C [3]: 94 % of control

Compound: Cn1nc(SCc2ccccc2)c(=O)[nH]c1=O
- T/C (dose: 75.0 mg/kg/injection, schedule: Q01DX001 (ip), vehicle: saline): 97 % of control
- T/C (dose: 150.0 mg/kg/injection, schedule: Q01DX001 (ip), vehicle: saline): 104 % of control

Compound: O=C(NC(=O)c1ccccc1)C(=O)c1ccccc1
- T/C (dose: 100.0 mg/kg/injection, schedule: Q01DX001 (ip), vehicle: saline with Tween-80): 94 % of control
- T/C (dose: 200.0 mg/kg/injection, schedule: Q01DX001 (ip), vehicle: saline with Tween-80): 105 % of control
- T/C (dose: 400.0 mg/kg/injection, schedule: Q01DX001 (ip), vehicle: saline with Tween-80): 87 % of control

Compound: O=C(O)C(=O)NCc1cnccn1
- T/C (dose: 25.0 mg/kg/injection, schedule: Q01DX009 (ip), vehicle: water): 96 % of control
- T/C (dose: 50.0 mg/kg/injection, schedule: Q01DX009 (ip), vehicle: water): 97 % of control
- T/C (dose: 100.0 mg/kg/injection, schedule: Q04DX003 (ip), vehicle: water): 96 % of control

Compound: Cc1cccc(Cl)c1NC(=O)Nc1cccc(O)c1
- T/C [1]: 100 % of control
- T/C [2]: 100 % of control
- T/C [3]: 97 % of control

Compound: CCCCNS(=O)(=O)c1ccc(N)cc1
- T/C (dose: 100.0 mg/kg/injection, schedule: Q01DX009 (ip), vehicle: saline sonified): 102 % of control
- T/C [4]: 98 % of control
- T/C (dose: 200.0 mg/kg/injection, schedule: Q01DX009 (ip), vehicle: saline sonified): 102 % of control
- T/C [5]: 109 % of control
- T/C (dose: 400.0 mg/kg/injection, schedule: Q01DX009 (ip), vehicle: saline sonified): 98 % of control
- T/C [6]: 117 % of control

Compound: COc1cc(NC(=O)O/N=C/c2ccccn2)cc(OC)c1OC
- T/C [1]: 91 % of control
- T/C [2]: 92 % of control

Compound: CCC(CC)NC(CC)CO (stereo unspecified)
- T/C (dose: 75.0 mg/kg/injection, schedule: Q01DX001 (ip), vehicle: carboxymethylcellulose (CMC)): 101 % of control
- T/C (dose: 150.0 mg/kg/injection, schedule: Q01DX001 (ip), vehicle: carboxymethylcellulose (CMC)): 100 % of control

Compound: CCN(CC)CCCC(C)Nc1ccnc2cc(Cl)ccc12 (stereo unspecified)
- T/C (dose: 25.0 mg/kg/injection, schedule: Q01DX001 (ip), vehicle: saline): 103 % of control
- T/C [7]: 100 % of control
- T/C (dose: 25.0 mg/kg/injection, schedule: Q04DX002 (ip), vehicle: saline): 95 % of control
- T/C (dose: 50.0 mg/kg/injection, schedule: Q01DX001 (ip), vehicle: saline): 104 % of control
- T/C [8]: 97 % of control and 98 % of control
- T/C (dose: 50.0 mg/kg/injection, schedule: Q04DX002 (ip), vehicle: saline): 95 % of control
- T/C (dose: 50.0 mg/kg/injection, schedule: Q04DX003 (ip), vehicle: saline): 105 % of control
- T/C [9]: 118 % of control and 92 % of control
- T/C [10]: 98 % of control
- T/C (dose: 100.0 mg/kg/injection, schedule: Q04DX002 (ip), vehicle: saline): 95 % of control
- T/C [11]: 108 % of control

Compound: CC(C)(O)C(O)C(=O)O (stereo unspecified)
- T/C [10]: 92 % of control
- T/C [11]: 106 % of control
- T/C (dose: 200.0 mg/kg/injection, schedule: Q01DX009 (ip), vehicle: saline): 89 % of control
- T/C [12]: 104 % of control
- T/C [13]: 97 % of control

Compound: COC(=O)C1(C(=O)OC)C2CCCCC21C (stereo unspecified)
- T/C (dose: 100.0 mg/kg/injection, schedule: Q01DX001 (ip), vehicle: Klucel (hydroxypropylcellulose) (HPC)): 103 % of control
- T/C [14]: 102 % of control
- T/C [4]: 106 % of control
- T/C (dose: 200.0 mg/kg/injection, schedule: Q01DX001 (ip), vehicle: Klucel (hydroxypropylcellulose) (HPC)): 102 % of control
- T/C [15]: 101 % of control
- T/C [5]: 106 % of control
- T/C (dose: 400.0 mg/kg/injection, schedule: Q01DX001 (ip), vehicle: Klucel (hydroxypropylcellulose) (HPC)): 95 % of control
- T/C [16]: 102 % of control
- T/C [6]: 101 % of control

Compound: COc1ccc(C(=O)CCS/C(CCO)=C(\C)N(C=O)Cc2cnc(C)nc2N)cc1
- T/C [11]: 101 % of control
- T/C [12]: 101 % of control
- T/C [13]: 101 % of control

Compound: NNC(=O)OCCO
- T/C [7]: 103 % of control
- T/C [8]: 104 % of control

Compound: O=C(O)c1ccnc(-c2ccc(Cl)cc2)c1
- T/C [11]: 90 % of control
- T/C [12]: 92 % of control

Compound: CC(=O)Nc1ccc(C=O)cc1
- T/C [9]: 100 % of control
- T/C (dose: 200.0 mg/kg/injection, schedule: Q01DX001 (ip), vehicle: saline): 97 % of control
- T/C (dose: 400.0 mg/kg/injection, schedule: Q01DX001 (ip), vehicle: saline): 116 % of control

Compound: CCOc1ccccc1C1N(C)CCCN1C
- T/C (dose: 6.25 mg/kg/injection, schedule: Q04DX003 (ip), vehicle: saline with Tween-80): 99 % of control
- T/C (dose: 12.5 mg/kg/injection, schedule: Q04DX003 (ip), vehicle: saline with Tween-80): 100 % of control
- T/C (dose: 25.0 mg/kg/injection, schedule: Q04DX003 (ip), vehicle: saline with Tween-80): 99 % of control

Compound: Nc1nnnn1-c1ccccc1
- T/C (dose: 100.0 mg/kg/injection, schedule: Q04DX002 (ip), vehicle: Klucel (hydroxypropylcellulose) (HPC)): 102 % of control
- T/C (dose: 200.0 mg/kg/injection, schedule: Q04DX002 (ip), vehicle: Klucel (hydroxypropylcellulose) (HPC)): 102 % of control
- T/C (dose: 400.0 mg/kg/injection, schedule: Q04DX002 (ip), vehicle: Klucel (hydroxypropylcellulose) (HPC)): 91 % of control

Compound: O=C(O)CNC(=O)CCl
- T/C (dose: 50.0 mg/kg/injection, schedule: Q01DX009 (ip), vehicle: Klucel (hydroxypropylcellulose) (HPC)): 87 % of control
- T/C [14]: 90 % of control
- T/C [4]: 94 % of control
- T/C [5]: 89 % of control

Compound: O=C1C=C(C(=O)O)C(c2ccccc2)CC1 (stereo unspecified)
- T/C [14]: 88 % of control
- T/C [4]: 100 % of control
- T/C [15]: 95 % of control
- T/C [5]: 95 % of control
- T/C [16]: 98 % of control
- T/C [6]: 98 % of control

Compound: CCCCCC(C)NC(=O)N(CCCl)N=O (stereo unspecified) (tested in a mixture with another compound)
- T/C (dose: 12.0 mg/kg/injection, schedule: Q01DX001 (ip), vehicle: saline with Tween-80): 109 % of control
- T/C (dose: 18.0 mg/kg/injection, schedule: Q01DX001 (ip), vehicle: saline with Tween-80): 116 % of control
- T/C (dose: 27.0 mg/kg/injection, schedule: Q01DX001 (ip), vehicle: saline with Tween-80): 169 % of control
- T/C (dose: 40.0 mg/kg/injection, schedule: Q01DX001 (ip), vehicle: saline with Tween-80): 151 % of control
- T/C (dose: 60.0 mg/kg/injection, schedule: Q01DX001 (ip), vehicle: saline with Tween-80): 200 % of control
- T/C (dose: 90.0 mg/kg/injection, schedule: Q01DX001 (ip), vehicle: saline with Tween-80): 210 % of control
- T/C (dose: 133.0 mg/kg/injection, schedule: Q01DX001 (ip), vehicle: saline with Tween-80): 88 % of control

Compound: CN(C)Cc1c(O)ccc2ccccc12
- T/C (dose: 100.0 mg/kg/injection, schedule: Q04DX002 (ip), vehicle: saline with Tween-80): 100 % of control
- T/C (dose: 200.0 mg/kg/injection, schedule: Q04DX002 (ip), vehicle: saline with Tween-80): 90 % of control

Compound: O=S(=O)(Nc1cc(Cl)ccc1Cl)c1ccc(Cl)cc1
- T/C [1]: 92 % of control
- T/C [2]: 102 % of control
- T/C [3]: 92 % of control

Compound: Cc1ccc(Nc2cc(=O)[nH]c(N)n2)cc1
- T/C (dose: 100.0 mg/kg/injection, schedule: Q01DX Z (ip), vehicle: methylcellulose (MC)): 94 % of control
